Experimental findings from PubChem BioAssay AID602338 (NMMLSC, 2012) are described below.

Molecules are shown by their SMILES. The source made the active and inactive calls. No rule for the calls is given here.

In this experiment the target is Botulinum neurotoxin type F (Clostridium botulinum) (UniProt P30996). In words: Botulinum neurotoxin type F light chain protease inhibitors, multiplex microsphere dose response (AID 602338). Conditions: multiplex microsphere protease cleavage assay, flow cytometry. A general note: In flow cytometry, cells or beads pass a laser one at a time.

The term EC50 denotes the concentration at which the effect is half-maximal. For the compound `O=C(Nc1ccc2nc(-c3cccs3)c(-c3cccs3)nc2c1)N1CCOCC1`, the EC50 was > 20 µM (inactive). Consider `CS(=O)(=O)N1N=C(c2ccccc2)CC1c1ccc2c(c1)OCO2` (centres undefined), for which the EC50 was > 20 µM (inactive). Take `O=[N+]([O-])c1cccc(-c2cn3nc(-c4ccccc4)c(-c4ccccc4)nc3n2)c1`: the EC50 is > 20 µM (inactive). On to `CCS(=O)(=O)N1N=C(c2cccc(NS(C)(=O)=O)c2)CC1c1ccccc1` (centres undefined), for which the EC50 was > 20 µM (inactive).

For the compound `CCSc1nnc(-c2sc3nnc(-c4ccccc4)c(-c4ccccc4)c3c2N)o1`, the EC50 was > 20 µM (inactive).

For `Cn1c(=O)c(/C=C/c2ccccc2)nc2ccccc21`, the EC50 was > 20 µM (inactive). As to `CCOc1ccc2nc3cc(NCc4ccc(OC)cc4)ccc3c(N)c2c1`, the EC50 is > 20 µM (inactive). Turning to `c1ccc(-c2cn3nc(-c4ccccc4)c(-c4ccccc4)nc3n2)cc1`, the EC50 was > 20 µM (inactive). In the case of `O=c1c(/C=C(\O)c2ccccc2)nc2ccccc2n1-c1ccccc1`, the EC50 is > 20 µM (inactive). As to `COc1ccc(OC)c(-c2nc3cc4ccccc4cc3nc2-c2ccccc2)c1`, the EC50 was > 20 µM (inactive).

Consider `CSc1nnc2c(n1)c(C)nn2-c1cccc(C)c1`, for which the EC50 was > 20 µM (inactive). `O=C(Nc1ccc2nc(-c3cccs3)c(-c3cccs3)nc2c1)NC1CC1`: the EC50 is > 20 µM (inactive). With `Oc1[nH]c(N=C2N=c3ccccc3=N2)c2ccccc12`, the EC50 was > 20 µM (inactive). Regarding `COc1ccc(C2CC(c3cccs3)=NN2c2nc(C)c(C(C)=O)s2)cc1OC` (centres undefined), the EC50 was > 20 µM (inactive).
